This passage reports solubility results from ChEMBL document CHEMBL1134968, “Prodrug and covalent linker strategies for the solubilization of dual-action antioxidants/iron chelators” (Bioorg Med Chem Lett, 2002).

In brackets after ≈: the same amount, converted by molar mass. Bounds are passed on as bounds.

The first series in a line: Compound was tested for its solubility in water. The series is classed as ADME. The conditions noted are these: read-out: S.
For `Cc1c(O)c(=O)ccn1CCCc1cc(C(C)(C)C)c(O)c(C(C)(C)C)c1`, the solubility is below 100 µg/mL.

As to `Cc1c(OC(=O)CCN)c(=O)ccn1CCCc1cc(C(C)(C)C)c(O)c(C(C)(C)C)c1`, the solubility was above 20000 µg/mL.

As to `Cc1c(C)c2c(c(C)c1O)CCC(C)(CNCCCCn1ccc(=O)c(O)c1C)O2` (stereo not given), the solubility was below 100 µg/mL.

Take `Cc1c(C)c2c(c(C)c1OC(=O)c1ccc(N)cc1)CC(CCn1ccc(=O)c(O)c1C)O2` (stereo not given): the solubility is below 100 µg/mL.

For the compound `Cc1c(C)c2c(c(C)c1OC(=O)C(N)C(C)C)CC(CCn1ccc(=O)c(O)c1C)O2` (stereo not given), the solubility is above 20000 µg/mL.

For `Cc1c(OC(=O)c2ccc(N)cc2)c(=O)ccn1CCCc1cc(C(C)(C)C)c(O)c(C(C)(C)C)c1`, the solubility was below 100 µg/mL.

As for `Cc1c(O)c(=O)ccn1CCOCCOCCOCCOCCOCCCc1cc(C(C)(C)C)c(O)c(C(C)(C)C)c1`, the solubility is below 100 µg/mL.

On to `Cc1c(C)c2c(c(C)c1O)CC(CCn1ccc(=O)c(O)c1C)O2` (stereo not given), for which the solubility is below 100 µg/mL.

Regarding `Cc1c(C)c2c(c(C)c1OC(=O)CCN)CC(CCn1ccc(=O)c(O)c1C)O2` (stereo not given), the solubility came out at 10000 µg/mL (≈ 25 mM).

Consider `CNCC(=O)Oc1c(C)c(C)c2c(c1C)CC(CCn1ccc(=O)c(O)c1C)O2` (stereo not given), for which the solubility is above 20000 µg/mL.

For the compound `CC(=O)Oc1c(C)n(CCCc2cc(C(C)(C)C)c(O)c(C(C)(C)C)c2)ccc1=O`, the solubility is below 100 µg/mL.

Regarding `Cc1c(C)c2c(c(C)c1OC(=O)CN(C)C)CC(CCn1ccc(=O)c(O)c1C)O2` (stereo not given), the solubility was above 20000 µg/mL.

On to `Cc1c(O)c(=O)ccn1CCOCCOCCOCCOCCCc1cc(C(C)(C)C)c(O)c(C(C)(C)C)c1`, for which the solubility was below 100 µg/mL.

For the compound `Cc1c(C)c2c(c(C)c1OC(=O)CCCN)CC(CCn1ccc(=O)c(O)c1C)O2` (stereo not given), the solubility came to 10000 µg/mL (≈ 24.1 mM).

A further series is described as follows: Compound was tested for its solubility in DMSO/H2O in a ratio of (1:9). The series is classed as ADME. The conditions noted are these: DMSO/H2O (1:9); read-out: S.
`Cc1c(O)c(=O)ccn1CCNCc1cc(C(C)(C)C)c(O)c(C(C)(C)C)c1`: the solubility turned out to be 10000 µg/mL.
